From US20090156563A1, “Glucan Compositions” (priority 2005, published 2009)

System: skin of the forearm
Assay: Determination of skin roughness (DIN 4768ff, profilometry of silicone skin impressions)
Format: in vivo, human
Conditions: 10% glyceryl stearate, 8 hours after application
Procedure: An aqueous lotion for the treatment of skin roughness is formulated from an aqueous emulsion containing 10% by weight of glyceryl stearate and either 0.005% or 0.05% or 0.5% by weight of β-1,3-scleroglucan (using formulations A-D described further above).
The determination of skin roughness is conducted according to German standard DIN 4768ff. The roughness of the skin is determined by taking silicone-based skin impressions and then measuring the surface profile of the impressions, using computer-aided profilometry. The skin roughness is calculated from the multiple measuring points (100 points per square millimeter). The number of volunteers used is 10. The determination of skin roughness is conducted both prior to application of the test lotion and 8 hours after application of the test lotion. The skin of the forearm is used as the skin test area. For the purpose of comparison, a control experiment is conducted using a placebo containing none of the scleroglucan formulations.

## β-1,3-scleroglucan
Lotion with 0.005% by weight β-1,3-scleroglucan (formulations A-D)
  reduction of skin roughness (relative to untreated skin): good reduction
Lotion with 0.05% by weight β-1,3-scleroglucan (formulations A-D)
  reduction of skin roughness (relative to untreated skin): good reduction
